The values below come from patent US20050170391A1, “TAUT1 transporters expressed in blood brain barrier cells” (Xenoport, Inc., priority 2004, published 2005).

The target in experiment [1] is T1, TAUT1 (Homo sapiens, UniProt P31641).
T1 sequence (P31641 1-620): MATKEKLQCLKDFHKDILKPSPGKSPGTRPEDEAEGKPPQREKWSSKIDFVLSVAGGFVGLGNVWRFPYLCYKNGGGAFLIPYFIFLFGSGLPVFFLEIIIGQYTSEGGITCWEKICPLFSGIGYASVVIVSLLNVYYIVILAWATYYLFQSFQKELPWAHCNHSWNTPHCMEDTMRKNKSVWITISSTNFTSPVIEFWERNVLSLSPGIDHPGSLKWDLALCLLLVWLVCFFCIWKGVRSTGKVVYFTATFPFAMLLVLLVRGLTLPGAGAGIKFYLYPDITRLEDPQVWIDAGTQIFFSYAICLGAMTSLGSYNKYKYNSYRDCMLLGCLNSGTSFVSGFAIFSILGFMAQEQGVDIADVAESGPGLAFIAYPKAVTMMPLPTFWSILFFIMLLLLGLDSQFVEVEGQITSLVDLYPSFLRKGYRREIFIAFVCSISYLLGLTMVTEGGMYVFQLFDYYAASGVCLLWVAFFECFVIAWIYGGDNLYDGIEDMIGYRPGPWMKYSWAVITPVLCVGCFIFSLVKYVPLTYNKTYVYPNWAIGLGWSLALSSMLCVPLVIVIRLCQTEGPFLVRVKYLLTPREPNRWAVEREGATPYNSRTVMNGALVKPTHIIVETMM
Put plainly: hTAUT1 direct uptake assay in HEK-TREx-TAUT1 cells (LC-MS-MS). It counts as cell-based. Details: expressed in transfected cells; host or cells: HEK-TREx cells (HEK-TREx-TAUT1 inducible line). Particulars: direct uptake into HEK-TREx-TAUT1 cells, +TET minus no TET; 15 min, room temperature. How it is done:
A modified direct uptake assay was developed to determine the ability of test compounds to be transported into HEK-TREx cells induced to over-express hTAUT. Four concentrations (bracketing the affinity as measured by competition assays) per compound were routinely tested. Non-specific uptake was determined by measuring the uptake into cells not induced to express the transporter (“no tet”).
Typically, four concentrations bracketing the IC50 were tested. The highest test concentration for each compound was made in an eppendorf tube and diluted into HBSS. The samples were robustly vortexed and centrifuged for 10 minutes at 13,200 rpm to spin down any precipitate. […] Three additional 2-fold dilutions were made in the subsequent rows (B-D or […]) in HBSS.
An internal standard of 50 μM propranolol in 50:50 ethanol:water was also prepared. To prepare standard curves, several concentrations of the test compounds were diluted into HEK cell extract (prepared from tet-treated, mock-incubated and extracted cells as described below) with a final internal standard concentration of 5 μM. Standards of 10, 5, 1, 0.5, 0.1, 0.05, 0.01 and 0.005 μM were routinely run for each test compound.
HEK-TREx-hTAUT cells were plated in 96-well plates and treated with plus (columns 1-3 and 7-9) or without tetracycline (or a tetracycline analog; columns 4-6 and 10-12). The cells were removed from the incubator, and the growth media was removed from the cells. The cells were washed twice in room temperature HBSS (100 μl/well/wash) using a 96-well plate washer (Bio Tek ELX405). Alternatively, cells were washed manually with equivalent volumes using a multichannel pipettor. Immediately before the assay was begun, the final 100 μl wash solution was removed from the cells. The assay was started by using a 96-well pipettor to add 50 μl from the “compound” plate to each well of the HEK-TREx-hTAUT cell plate. The plate was incubated at room temperature for 15 minutes.
After the final wash, as much of the wash buffer as possible was removed by aspirating the wells with a probe that reached the bottom of the wells. (Residual salts from the wash buffer can adversely affect the LC-MS-MS by disrupting the LC method or by suppressing the MS signal.) 150 μl of a 50:50 ethanol:water solution was added to each well to lyse the cells and extract the test compound. The plate was covered and allowed to sit for 20 minutes at room temperature to ensure cell lysis. (The 50% ethanol solution is the generic solution for extraction. For compounds soluble in water or other solvents compatible with the LC-MS-MS, such solutions can be tried to determine they interfere with the LC-MS-MS analysis. If the organic solvent concentration is too high (>50%), it may be detrimental to the LC run).
120 μl of the cell extract was removed from each well and transferred to a fresh 96-well v-bottom polypropylene plate. This plate was covered with an adherent cover (top seal) and centrifuged for 15 minutes at 5,700 rpm (Allegra 25R centrifuge) at 4° C. to pellet any cell precipitate. 10 μl of the 50 μM propranolol solution was added to each well of a fresh 96-well plate (a plate amenable for sampling in the LC-MS-MS). 90 μl of the supernatant from the centrifuged cell extract was removed and transferred to the plate containing the 10 μl of propranolol (using the Cybi-well 96-well pipettor). The sample plate with a bubble lid suitable for use with the LC-MS-MS and placed on a plate shaker for 5 to 10 minutes to mix the sample and the propranolol. The samples were submitted for LC-MS-MS analysis. The levels of intracellular compounds were determined by converting the peak area to concentration by extrapolating from the standard curve for each compound. Uptake was expressed as μM/well.
While the uptake values in these experiments were expressed as “μM/well”, the values can be easily converted to “pmol/well” or “pmol/well/unit time”. All of the samples were extracted with 150 μl of extraction buffer.

Experiment [2] has as its target T2, mouse homolog of the transporter (TAUT1) (Mus musculus, UniProt O35316).
T2 sequence (O35316 1-621): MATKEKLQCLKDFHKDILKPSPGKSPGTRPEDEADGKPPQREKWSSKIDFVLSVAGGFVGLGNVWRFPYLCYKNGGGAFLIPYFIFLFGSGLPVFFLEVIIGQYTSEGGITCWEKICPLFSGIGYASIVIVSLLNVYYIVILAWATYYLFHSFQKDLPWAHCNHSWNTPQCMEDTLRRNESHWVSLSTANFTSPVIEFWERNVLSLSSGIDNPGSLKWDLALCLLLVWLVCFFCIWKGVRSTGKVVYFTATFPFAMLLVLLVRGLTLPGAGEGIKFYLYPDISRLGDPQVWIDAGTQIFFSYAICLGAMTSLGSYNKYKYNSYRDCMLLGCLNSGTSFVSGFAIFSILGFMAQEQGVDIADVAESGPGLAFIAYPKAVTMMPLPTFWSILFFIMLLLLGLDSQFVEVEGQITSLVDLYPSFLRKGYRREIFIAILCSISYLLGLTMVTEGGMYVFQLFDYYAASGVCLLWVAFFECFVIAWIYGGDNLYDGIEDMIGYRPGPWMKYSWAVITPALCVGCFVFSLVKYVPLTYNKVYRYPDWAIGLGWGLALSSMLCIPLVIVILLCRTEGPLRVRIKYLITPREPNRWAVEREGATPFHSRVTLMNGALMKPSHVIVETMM
Particulars: literature IC50, mouse homolog of the transporter; read-out: Literature Km or IC50; cited from earlier work.

As a reminder, the Km is the substrate concentration at which the rate is half of its maximum. Regarding `NCC(CC(=O)O)c1ccc(Cl)cc1` (stereo not shown) [R,S-Baclofen], in experiment [1], the Michaelis constant (Km) was determined as 1700 µM, the Vmax stood at 5.4 μM/well and the pKm stood at 2.9.
A word on the IC50: it is the concentration that gives 50% inhibition. On to `NCCCC(=O)O` [GABA, γ-aminobutyric acid], for which the IC50 in experiment [2] is 500 µM. Further, the Vmax in experiment [1] was 12 μM/well.
Regarding `N=C(N)NCCC(=O)O` [GPA], the 50% inhibitory concentration (IC50) in experiment [2] is 120 µM. Besides, in experiment [1], the Km is 120 µM, the Vmax was 6.4 μM/well and the pKm amounted to 4.0.
As to `O=C(O)Cc1c[nH]cn1` [IAA, 4-imidazole acetic acid], the Vmax in experiment [1] is on record as 6.1 μM/well.
